In brackets after ≈: the same amount, converted by molar mass.
Columns and labels:
Format in all cases: functional
[1] = test system: Streptococcus pyogenes; assay: Antibacterial activity against erythromycin susceptible Streptococcus pyogenes by agar microdilution method
[2] = test system: Haemophilus influenzae; assay: Antibacterial activity against Haemophilus influenzae by agar microdilution method
[3] = test system: Staphylococcus aureus; assay: Antibacterial activity against erythromycin susceptible Staphylococcus aureus by agar microdilution method
[4] = test system: Streptococcus pneumoniae; assay: Antibacterial activity against erythromycin susceptible Streptococcus pneumoniae by agar microdilution method
[5] = test system: Streptococcus pyogenes; assay: Antibacterial activity against Mef-mediated macrolide efflux resistant Streptococcus pyogenes by agar microdilution method
[6] = test system: Staphylococcus aureus; assay: Antibacterial activity against constitutively macrolide/lincosamide/streptogramin B-resistant Staphylococcus aureus by agar microdilution method
[7] = test system: Streptococcus pyogenes; assay: Antibacterial activity against constitutively macrolide/lincosamide/streptogramin B-resistant Streptococcus pyogenes by agar microdilution method
[8] = test system: Staphylococcus aureus; assay: Antibacterial activity against inducibly macrolide/lincosamide/streptogramin B-resistant Staphylococcus aureus by agar microdilution method
[9] = test system: Streptococcus pneumoniae; assay: Antibacterial activity against Mef-mediated macrolide efflux resistant Streptococcus pneumoniae by agar microdilution method
[10] = test system: Streptococcus pneumoniae; assay: Antibacterial activity against constitutively macrolide/lincosamide/streptogramin B-resistant Streptococcus pneumoniae by agar microdilution method

| Structure (SMILES) | MIC [1] | MIC [2] | MIC [3] | MIC [4] | MIC [5] | MIC [6] | MIC [7] | MIC [8] | MIC [9] | MIC [10] |
| --- | --- | --- | --- | --- | --- | --- | --- | --- | --- | --- |
| NCCNc1cc2c(cc1F)c(=O)c(C(=O)O)cn2C1CC1 | > 64 µg/mL | > 64 µg/mL | > 64 µg/mL | > 64 µg/mL | – | – | – | – | – | – |
| C=CCO[C@]1(C)C[C@@H](C)NC(=O)[C@H](C)[C@@H](O)[C@](C)(O)[C@@H](CC)OC(=O)[C@H](C)[C@@H](OC(=O)CCNC(C)Cc2ccc([N+](=O)[O-])cc2)[C@H](C)[C@H]1O[C@@H]1O[C@H](C)C[C@H](N(C)C)[C@H]1O (some centres not stated) | ≤ 0.125 µg/mL | 8 µg/mL (≈ 9.25 µM) | 1 µg/mL (≈ 1.16 µM) | ≤ 0.125 µg/mL | 1 µg/mL (≈ 1.16 µM) | > 64 µg/mL | > 64 µg/mL | 1 µg/mL (≈ 1.16 µM) | 0.5 µg/mL (≈ 0.578 µM) | > 64 µg/mL |
| C=CCO[C@]1(C)C[C@@H](C)NC(=O)[C@H](C)[C@@H](O)[C@](C)(O)[C@@H](CC)OC(=O)[C@H](C)[C@@H](OC(=O)CCNCCCCc2ccccc2)[C@H](C)[C@H]1O[C@@H]1O[C@H](C)C[C@H](N(C)C)[C@H]1O | 2 µg/mL (≈ 2.4 µM) | 16 µg/mL (≈ 19.2 µM) | 2 µg/mL (≈ 2.4 µM) | 0.5 µg/mL (≈ 0.599 µM) | 2 µg/mL (≈ 2.4 µM) | > 64 µg/mL | > 64 µg/mL | 8 µg/mL (≈ 9.59 µM) | 4 µg/mL (≈ 4.8 µM) | > 64 µg/mL |
| O=C(O)c1cn(C2CC2)c2ccc(N3CCNCC3)cc2c1=O | > 64 µg/mL | > 64 µg/mL | > 64 µg/mL | > 64 µg/mL | – | – | – | – | – | – |
| C=CCO[C@]1(C)C[C@@H](C)NC(=O)[C@H](C)[C@@H](O)[C@](C)(O)[C@@H](CC)OC(=O)[C@H](C)[C@@H](OC(=O)CCNC(C)C(=O)Nc2ccccc2)[C@H](C)[C@H]1O[C@@H]1O[C@H](C)C[C@H](N(C)C)[C@H]1O (some centres not stated) | 0.5 µg/mL (≈ 0.589 µM) | 16 µg/mL (≈ 18.8 µM) | 2 µg/mL (≈ 2.36 µM) | 0.25 µg/mL (≈ 0.294 µM) | 2 µg/mL (≈ 2.36 µM) | > 64 µg/mL | > 64 µg/mL | 4 µg/mL (≈ 4.71 µM) | 1 µg/mL (≈ 1.18 µM) | > 64 µg/mL |
| C=CCO[C@]1(C)C[C@@H](C)NC(=O)[C@H](C)[C@@H](O)[C@](C)(O)[C@@H](CC)OC(=O)[C@H](C)[C@@H](OC(=O)CCN(C)CCc2ccccc2)[C@H](C)[C@H]1O[C@@H]1O[C@H](C)C[C@H](N(C)C)[C@H]1O | 0.5 µg/mL (≈ 0.61 µM) | 16 µg/mL (≈ 19.5 µM) | 4 µg/mL (≈ 4.88 µM) | 0.25 µg/mL (≈ 0.305 µM) | 8 µg/mL (≈ 9.76 µM) | > 64 µg/mL | > 64 µg/mL | 4 µg/mL (≈ 4.88 µM) | 2 µg/mL (≈ 2.44 µM) | > 64 µg/mL |
| C=CCO[C@]1(C)C[C@@H](C)NC(=O)[C@H](C)[C@@H](O)[C@](C)(O)[C@@H](CC)OC(=O)[C@H](C)[C@@H](OC(=O)CCN(C)CCc2ccc([N+](=O)[O-])cc2)[C@H](C)[C@H]1O[C@@H]1O[C@H](C)C[C@H](N(C)C)[C@H]1O | ≤ 0.125 µg/mL | 8 µg/mL (≈ 9.25 µM) | 0.5 µg/mL (≈ 0.578 µM) | ≤ 0.125 µg/mL | – | > 64 µg/mL | > 64 µg/mL | 0.5 µg/mL (≈ 0.578 µM) | – | > 64 µg/mL |
| C=CCO[C@]1(C)C[C@@H](C)NC(=O)[C@H](C)[C@@H](OC(=O)C=C)[C@](C)(O)[C@@H](CC)OC(=O)[C@H](C)[C@@H](OC(=O)C=C)[C@H](C)[C@H]1O[C@@H]1O[C@H](C)C[C@H](N(C)C)[C@H]1O | 32 µg/mL (≈ 43.3 µM) | > 64 µg/mL | 32 µg/mL (≈ 43.3 µM) | 32 µg/mL (≈ 43.3 µM) | > 64 µg/mL | > 64 µg/mL | > 64 µg/mL | > 64 µg/mL | > 64 µg/mL | > 64 µg/mL |
| C=CCO[C@]1(C)C[C@@H](C)NC(=O)[C@H](C)[C@@H](O)[C@](C)(O)[C@@H](CC)OC(=O)[C@H](C)[C@@H](OC(=O)CCN2CCN(c3ccc(F)cc3)CC2)[C@H](C)[C@H]1O[C@@H]1O[C@H](C)C[C@H](N(C)C)[C@H]1O | 1 µg/mL (≈ 1.16 µM) | 16 µg/mL (≈ 18.5 µM) | 2 µg/mL (≈ 2.31 µM) | 0.25 µg/mL (≈ 0.289 µM) | 2 µg/mL (≈ 2.31 µM) | > 64 µg/mL | > 64 µg/mL | 4 µg/mL (≈ 4.62 µM) | 2 µg/mL (≈ 2.31 µM) | > 64 µg/mL |
| C=CCO[C@]1(C)C[C@@H](C)NC(=O)[C@H](C)[C@@H](O)[C@](C)(O)[C@@H](CC)OC(=O)[C@H](C)[C@@H](OC(=O)CCNC(C)Cc2ccccc2)[C@H](C)[C@H]1O[C@@H]1O[C@H](C)C[C@H](N(C)C)[C@H]1O (some centres not stated) | 1 µg/mL (≈ 1.22 µM) | 8 µg/mL (≈ 9.76 µM) | 4 µg/mL (≈ 4.88 µM) | 1 µg/mL (≈ 1.22 µM) | 2 µg/mL (≈ 2.44 µM) | > 64 µg/mL | > 64 µg/mL | 4 µg/mL (≈ 4.88 µM) | 2 µg/mL (≈ 2.44 µM) | > 64 µg/mL |
| C=CCO[C@]1(C)C[C@@H](C)NC(=O)[C@H](C)[C@@H](O)[C@](C)(O)[C@@H](CC)OC(=O)[C@H](C)[C@@H](OC(=O)CCNC(C)Cc2ccc(OC)cc2)[C@H](C)[C@H]1O[C@@H]1O[C@H](C)C[C@H](N(C)C)[C@H]1O (some centres not stated) | 0.25 µg/mL (≈ 0.294 µM) | 16 µg/mL (≈ 18.8 µM) | 2 µg/mL (≈ 2.35 µM) | 0.5 µg/mL (≈ 0.588 µM) | 4 µg/mL (≈ 4.71 µM) | > 64 µg/mL | > 64 µg/mL | 2 µg/mL (≈ 2.35 µM) | 2 µg/mL (≈ 2.35 µM) | > 64 µg/mL |
| C=CCO[C@]1(C)C[C@@H](C)NC(=O)[C@H](C)[C@@H](O)[C@](C)(O)[C@@H](CC)OC(=O)[C@H](C)[C@@H](OC(=O)CCNCCCc2ccccc2)[C@H](C)[C@H]1O[C@@H]1O[C@H](C)C[C@H](N(C)C)[C@H]1O | 2 µg/mL (≈ 2.44 µM) | 16 µg/mL (≈ 19.5 µM) | 2 µg/mL (≈ 2.44 µM) | 1 µg/mL (≈ 1.22 µM) | 8 µg/mL (≈ 9.76 µM) | > 64 µg/mL | > 64 µg/mL | 4 µg/mL (≈ 4.88 µM) | 4 µg/mL (≈ 4.88 µM) | > 64 µg/mL |
| C=CCO[C@]1(C)C[C@@H](C)NC(=O)[C@H](C)[C@@H](O)[C@](C)(O)[C@@H](CC)OC(=O)[C@H](C)[C@@H](OC(=O)CCNC(C)C(=O)Nc2ccc([N+](=O)[O-])cc2)[C@H](C)[C@H]1O[C@@H]1O[C@H](C)C[C@H](N(C)C)[C@H]1O (some centres not stated) | ≤ 0.125 µg/mL | 8 µg/mL (≈ 8.95 µM) | 1 µg/mL (≈ 1.12 µM) | ≤ 0.125 µg/mL | 0.5 µg/mL (≈ 0.559 µM) | > 64 µg/mL | > 64 µg/mL | 1 µg/mL (≈ 1.12 µM) | 0.25 µg/mL (≈ 0.28 µM) | > 64 µg/mL |
| NCCNc1cc2c(=O)c(C(=O)O)cn(C3CC3)c2cc1Cl | > 64 µg/mL | > 64 µg/mL | > 64 µg/mL | > 64 µg/mL | – | – | – | – | – | – |
| C=CCO[C@]1(C)C[C@@H](C)NC(=O)[C@H](C)[C@@H](O)[C@](C)(O)[C@@H](CC)OC(=O)[C@H](C)[C@@H](OC(=O)C=C)[C@H](C)[C@H]1O[C@@H]1O[C@H](C)C[C@H](N(C)C)[C@H]1O | 16 µg/mL (≈ 23.4 µM) | > 64 µg/mL | 32 µg/mL (≈ 46.7 µM) | 16 µg/mL (≈ 23.4 µM) | > 64 µg/mL | > 64 µg/mL | > 64 µg/mL | > 64 µg/mL | > 64 µg/mL | > 64 µg/mL |
| CC[C@H]1OC(=O)[C@H](C)C(=O)[C@H](C)[C@@H](O[C@@H]2O[C@H](C)C[C@H](N(C)C)[C@H]2O)[C@](C)(OCC=Cc2cnc3ccccc3c2)C[C@@H](C)C(=O)[C@H](C)[C@H]2NC(=O)O[C@@]21C [CETHROMYCIN] | ≤ 0.06 µg/mL | 2 µg/mL (≈ 2.61 µM) | ≤ 0.125 µg/mL | ≤ 0.06 µg/mL | ≤ 0.125 µg/mL | > 64 µg/mL | 1 µg/mL (≈ 1.31 µM) | 0.25 µg/mL (≈ 0.326 µM) | – | ≤ 0.125 µg/mL |
| O=C(O)c1cn(C2CC2)c2cc(N3CCNCC3)c(F)cc2c1=O [CIPROFLOXACIN] | 2 µg/mL (≈ 6.04 µM) | ≤ 0.125 µg/mL | ≤ 0.125 µg/mL | ≤ 0.125 µg/mL | ≤ 0.125 µg/mL | – | 0.5 µg/mL (≈ 1.51 µM) | – | 0.25 µg/mL (≈ 0.754 µM) | 0.25 µg/mL (≈ 0.754 µM) |
